Laboratory results taken from ChEMBL document CHEMBL5465560, “Selectivity Literature for EUbOPEN Chemogenomic Library” (2024).
Each block holds one compound with its values, some of them ahead of it.

Experiments:
[1] = biological target: Vasopressin V1a receptor (Homo sapiens) (UniProt P37288); experiment: Selectivity interaction (Panel of non-epigenetic targets (kinases, GPCRs, ion channels, and transporters, Eurofins) ) EUB0000271b AVPR1A; conditions: at 1 µM
[2] = biological target: T1, Inhibitor of nuclear factor kappa-B kinase subunit alpha (Homo sapiens) (UniProt O15111); experiment: Selectivity interaction (Ambit KINOMEscan and KiNATiv profiling in Jurkat cells) EUB0000090b CHUK; format: cell-based; conditions: at 1 µM
T1 sequence (whole entry): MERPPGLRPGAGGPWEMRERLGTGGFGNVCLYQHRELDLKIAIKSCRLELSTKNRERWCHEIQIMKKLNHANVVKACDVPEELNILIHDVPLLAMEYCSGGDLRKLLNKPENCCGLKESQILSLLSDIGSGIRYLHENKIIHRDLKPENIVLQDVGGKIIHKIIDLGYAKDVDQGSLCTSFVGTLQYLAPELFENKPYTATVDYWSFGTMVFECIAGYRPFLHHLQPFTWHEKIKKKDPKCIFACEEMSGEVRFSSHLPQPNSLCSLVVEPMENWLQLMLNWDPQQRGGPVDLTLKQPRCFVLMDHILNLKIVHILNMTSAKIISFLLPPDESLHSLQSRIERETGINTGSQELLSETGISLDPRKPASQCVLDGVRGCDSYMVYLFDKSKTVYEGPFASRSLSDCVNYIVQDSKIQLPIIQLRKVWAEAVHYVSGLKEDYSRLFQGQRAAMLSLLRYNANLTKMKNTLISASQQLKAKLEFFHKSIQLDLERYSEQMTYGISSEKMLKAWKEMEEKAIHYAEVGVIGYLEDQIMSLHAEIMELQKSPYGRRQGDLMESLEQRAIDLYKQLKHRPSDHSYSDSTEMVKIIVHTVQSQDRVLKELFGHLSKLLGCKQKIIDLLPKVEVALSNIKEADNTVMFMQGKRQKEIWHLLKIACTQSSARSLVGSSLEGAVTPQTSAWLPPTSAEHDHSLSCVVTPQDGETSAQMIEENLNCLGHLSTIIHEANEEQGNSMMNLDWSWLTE

[3] = biological target: cAMP-dependent protein kinase catalytic subunit alpha (Homo sapiens, UniProt P17612); experiment: Selectivity interaction (KinomeScan (DiscoverX)) EUB0001079a PRKACA; conditions: at 1 µM
[4] = biological target: Mitogen-activated protein kinase 1 (Homo sapiens, UniProt P28482); experiment: Selectivity interaction (KinomeScan (DiscoverX)) EUB0000607a MAPK1; conditions: at 10 µM
Mitogen-activated protein kinase 1, sequence (P28482 whole entry, canonical isoform): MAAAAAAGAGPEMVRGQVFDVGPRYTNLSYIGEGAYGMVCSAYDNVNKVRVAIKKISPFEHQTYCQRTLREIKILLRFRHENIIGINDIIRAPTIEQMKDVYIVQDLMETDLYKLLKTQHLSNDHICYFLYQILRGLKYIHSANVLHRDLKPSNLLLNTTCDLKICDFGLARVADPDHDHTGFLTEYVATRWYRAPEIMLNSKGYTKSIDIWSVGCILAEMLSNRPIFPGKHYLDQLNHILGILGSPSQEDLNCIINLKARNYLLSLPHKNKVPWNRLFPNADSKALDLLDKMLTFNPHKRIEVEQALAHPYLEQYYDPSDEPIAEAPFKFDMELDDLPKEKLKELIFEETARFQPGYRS

[5] = biological target: Casein kinase I isoform gamma-1 (Homo sapiens) (UniProt Q9HCP0); experiment: Selectivity interaction (KinomeScan (DiscoverX)) EUB0000045b CSNK1G1
Casein kinase I isoform gamma-1 (Homo sapiens), sequence (Q9HCP0 whole entry, looked up, canonical isoform): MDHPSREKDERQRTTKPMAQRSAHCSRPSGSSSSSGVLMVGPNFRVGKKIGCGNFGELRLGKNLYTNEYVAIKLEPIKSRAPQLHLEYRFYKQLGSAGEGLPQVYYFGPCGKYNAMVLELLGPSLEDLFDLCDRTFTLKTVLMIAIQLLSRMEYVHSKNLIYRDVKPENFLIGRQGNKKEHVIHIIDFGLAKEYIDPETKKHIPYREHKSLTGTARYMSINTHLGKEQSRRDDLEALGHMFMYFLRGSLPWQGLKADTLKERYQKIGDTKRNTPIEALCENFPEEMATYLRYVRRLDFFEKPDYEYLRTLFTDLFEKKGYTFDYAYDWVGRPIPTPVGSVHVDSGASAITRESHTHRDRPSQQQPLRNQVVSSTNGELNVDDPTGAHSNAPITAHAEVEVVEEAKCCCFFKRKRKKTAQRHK

[6] = test system: eIF-2-alpha kinase GCN2 (Homo sapiens), Q9P2K8 [S808G]; experiment: Selectivity interaction (KinomeScan (DiscoverX)) EUB0000045b EIF2AK4
eIF-2-alpha kinase GCN2 (Homo sapiens), Q9P2K8 [S808G], sequence (Q9P2K8 whole entry S808G): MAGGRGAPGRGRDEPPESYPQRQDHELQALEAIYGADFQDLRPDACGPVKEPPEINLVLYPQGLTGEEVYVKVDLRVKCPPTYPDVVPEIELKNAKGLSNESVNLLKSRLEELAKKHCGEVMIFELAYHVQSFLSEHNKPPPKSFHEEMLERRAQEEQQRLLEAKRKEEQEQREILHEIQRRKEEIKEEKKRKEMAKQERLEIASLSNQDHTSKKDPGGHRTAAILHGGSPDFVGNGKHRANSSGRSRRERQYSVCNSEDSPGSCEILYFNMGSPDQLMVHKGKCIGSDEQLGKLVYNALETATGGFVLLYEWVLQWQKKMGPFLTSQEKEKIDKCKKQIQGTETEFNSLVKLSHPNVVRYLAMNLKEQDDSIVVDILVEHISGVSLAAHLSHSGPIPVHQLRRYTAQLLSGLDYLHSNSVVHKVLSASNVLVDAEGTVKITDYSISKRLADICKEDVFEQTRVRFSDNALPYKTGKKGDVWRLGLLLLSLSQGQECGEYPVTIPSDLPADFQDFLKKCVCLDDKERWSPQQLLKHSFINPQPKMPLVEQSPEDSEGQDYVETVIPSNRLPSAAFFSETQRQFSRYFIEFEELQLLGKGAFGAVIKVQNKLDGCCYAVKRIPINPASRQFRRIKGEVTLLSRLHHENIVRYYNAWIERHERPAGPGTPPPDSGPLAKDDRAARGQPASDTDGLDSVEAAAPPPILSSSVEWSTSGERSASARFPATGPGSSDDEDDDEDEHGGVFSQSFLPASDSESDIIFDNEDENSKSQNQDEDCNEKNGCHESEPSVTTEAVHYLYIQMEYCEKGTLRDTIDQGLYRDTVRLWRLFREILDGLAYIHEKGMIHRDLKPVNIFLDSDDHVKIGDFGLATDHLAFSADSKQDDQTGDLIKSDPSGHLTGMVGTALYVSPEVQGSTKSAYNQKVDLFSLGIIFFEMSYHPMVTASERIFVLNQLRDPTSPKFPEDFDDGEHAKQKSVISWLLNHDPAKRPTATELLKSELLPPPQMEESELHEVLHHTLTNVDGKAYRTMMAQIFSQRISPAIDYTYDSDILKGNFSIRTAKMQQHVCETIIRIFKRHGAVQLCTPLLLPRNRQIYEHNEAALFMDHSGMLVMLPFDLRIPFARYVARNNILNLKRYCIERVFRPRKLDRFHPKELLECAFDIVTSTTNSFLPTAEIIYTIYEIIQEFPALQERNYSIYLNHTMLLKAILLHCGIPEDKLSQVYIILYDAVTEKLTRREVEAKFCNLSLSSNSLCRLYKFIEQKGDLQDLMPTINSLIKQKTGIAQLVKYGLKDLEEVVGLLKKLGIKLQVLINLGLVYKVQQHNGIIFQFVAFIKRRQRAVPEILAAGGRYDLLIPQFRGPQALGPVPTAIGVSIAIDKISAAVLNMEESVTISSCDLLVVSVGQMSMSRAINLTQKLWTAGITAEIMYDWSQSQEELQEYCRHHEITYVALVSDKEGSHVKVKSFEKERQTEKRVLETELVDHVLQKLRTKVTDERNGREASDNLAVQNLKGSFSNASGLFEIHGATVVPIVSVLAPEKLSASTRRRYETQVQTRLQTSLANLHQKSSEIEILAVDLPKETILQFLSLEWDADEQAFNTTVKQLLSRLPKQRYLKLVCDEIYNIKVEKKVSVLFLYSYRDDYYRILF

[7] = biological target: Aurora kinase B (Homo sapiens, UniProt Q96GD4); experiment: Selectivity interaction (ActivX KiNativ screen (kinase selectivity in THP-1 cell lysates)) EUB0000639a AURKB; format: subcellular; conditions: lysate, at 1 µM
Aurora kinase B, sequence (Q96GD4 whole entry): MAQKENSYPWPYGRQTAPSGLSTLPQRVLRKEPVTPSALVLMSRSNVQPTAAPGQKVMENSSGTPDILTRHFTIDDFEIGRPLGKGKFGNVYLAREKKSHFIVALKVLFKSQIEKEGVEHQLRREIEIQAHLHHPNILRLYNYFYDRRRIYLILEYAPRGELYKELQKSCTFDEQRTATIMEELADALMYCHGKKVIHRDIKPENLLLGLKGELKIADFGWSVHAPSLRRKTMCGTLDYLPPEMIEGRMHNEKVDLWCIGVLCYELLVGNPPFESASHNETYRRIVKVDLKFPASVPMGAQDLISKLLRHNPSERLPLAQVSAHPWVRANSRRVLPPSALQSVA

[8] = biological target: T2, Mitogen-activated protein kinase kinase kinase kinase 2 (Homo sapiens) (UniProt Q12851); experiment: Selectivity interaction (ActivX KiNativ screen (kinase selectivity in THP-1 cell lysates)) EUB0000639a MAP4K2; format: subcellular; conditions: lysate, at 0.04 µM
T2 sequence (whole entry): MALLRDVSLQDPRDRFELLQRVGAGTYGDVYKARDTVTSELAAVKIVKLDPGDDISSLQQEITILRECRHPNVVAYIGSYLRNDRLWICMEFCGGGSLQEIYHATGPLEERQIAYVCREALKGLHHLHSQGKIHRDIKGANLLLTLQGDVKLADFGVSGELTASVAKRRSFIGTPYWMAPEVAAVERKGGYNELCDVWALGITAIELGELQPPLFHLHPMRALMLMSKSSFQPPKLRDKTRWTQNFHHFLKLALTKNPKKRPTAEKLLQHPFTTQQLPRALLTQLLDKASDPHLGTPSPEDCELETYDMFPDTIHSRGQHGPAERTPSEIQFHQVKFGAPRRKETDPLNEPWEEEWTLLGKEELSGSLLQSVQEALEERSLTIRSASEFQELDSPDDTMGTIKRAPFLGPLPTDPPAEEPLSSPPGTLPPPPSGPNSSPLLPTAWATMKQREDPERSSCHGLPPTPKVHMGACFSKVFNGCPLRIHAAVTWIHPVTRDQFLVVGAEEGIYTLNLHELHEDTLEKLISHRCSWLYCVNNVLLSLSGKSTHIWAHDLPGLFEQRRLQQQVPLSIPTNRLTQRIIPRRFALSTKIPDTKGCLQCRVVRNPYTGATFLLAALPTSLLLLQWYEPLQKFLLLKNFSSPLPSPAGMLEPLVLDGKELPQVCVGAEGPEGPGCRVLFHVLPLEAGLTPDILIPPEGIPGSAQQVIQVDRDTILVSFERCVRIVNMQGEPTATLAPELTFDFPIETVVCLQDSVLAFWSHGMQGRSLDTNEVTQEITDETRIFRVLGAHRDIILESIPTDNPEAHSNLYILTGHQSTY

[9] = biological target: Serine/threonine-protein kinase N1 (Homo sapiens, UniProt Q16512); experiment: Selectivity interaction (ActivX KiNativ screen (kinase selectivity in THP-1 cell lysates)) EUB0000639a PKN1; format: subcellular; conditions: lysate, at 0.2 µM
[10] = biological target: Casein kinase I isoform epsilon (Homo sapiens, UniProt P49674); experiment: Selectivity interaction (KinomeScan (DiscoverX)) EUB0000229b CSNK1E; conditions: at 10 µM
Casein kinase I isoform epsilon, sequence (P49674 whole entry, looked up, canonical isoform): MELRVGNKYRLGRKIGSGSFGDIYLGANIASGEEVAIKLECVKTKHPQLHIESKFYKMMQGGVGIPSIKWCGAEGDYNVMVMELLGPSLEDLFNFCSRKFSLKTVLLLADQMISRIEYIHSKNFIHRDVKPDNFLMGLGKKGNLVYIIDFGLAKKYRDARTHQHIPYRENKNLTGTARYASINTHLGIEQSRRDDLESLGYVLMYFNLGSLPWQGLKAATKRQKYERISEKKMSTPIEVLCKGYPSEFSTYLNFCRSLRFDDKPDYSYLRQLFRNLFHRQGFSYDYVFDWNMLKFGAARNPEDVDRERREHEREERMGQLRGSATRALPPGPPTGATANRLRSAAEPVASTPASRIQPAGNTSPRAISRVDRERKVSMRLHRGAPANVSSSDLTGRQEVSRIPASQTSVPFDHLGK

[11] = biological target: Mitogen-activated protein kinase kinase kinase kinase 1 (Homo sapiens) (UniProt Q92918); experiment: Selectivity interaction (KinomeScan (DiscoverX)) EUB0001049a MAP4K1; conditions: at 1 µM
Mitogen-activated protein kinase kinase kinase kinase 1 (Homo sapiens), sequence (Q92918 whole entry, looked up): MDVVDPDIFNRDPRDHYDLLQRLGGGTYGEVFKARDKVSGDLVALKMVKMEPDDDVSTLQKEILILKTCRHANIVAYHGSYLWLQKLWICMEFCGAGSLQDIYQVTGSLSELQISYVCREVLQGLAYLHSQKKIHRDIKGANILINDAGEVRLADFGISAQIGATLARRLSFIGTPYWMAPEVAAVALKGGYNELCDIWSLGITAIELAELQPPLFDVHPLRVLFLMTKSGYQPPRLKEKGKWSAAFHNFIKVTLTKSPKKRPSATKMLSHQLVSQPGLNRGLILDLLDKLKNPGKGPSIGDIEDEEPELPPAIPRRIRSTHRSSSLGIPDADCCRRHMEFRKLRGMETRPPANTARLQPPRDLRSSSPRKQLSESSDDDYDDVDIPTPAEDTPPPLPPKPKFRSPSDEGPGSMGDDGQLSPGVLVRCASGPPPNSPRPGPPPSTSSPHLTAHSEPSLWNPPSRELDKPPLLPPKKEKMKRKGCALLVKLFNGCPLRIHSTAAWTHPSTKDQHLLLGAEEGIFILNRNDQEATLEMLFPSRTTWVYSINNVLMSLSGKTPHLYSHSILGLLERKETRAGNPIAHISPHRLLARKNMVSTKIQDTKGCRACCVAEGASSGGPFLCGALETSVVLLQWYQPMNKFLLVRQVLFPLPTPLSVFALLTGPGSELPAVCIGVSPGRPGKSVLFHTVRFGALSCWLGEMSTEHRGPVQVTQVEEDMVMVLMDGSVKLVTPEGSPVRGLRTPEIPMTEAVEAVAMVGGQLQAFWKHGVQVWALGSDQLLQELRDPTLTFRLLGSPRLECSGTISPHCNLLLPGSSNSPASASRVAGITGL

[12] = biological target: Dual specificity mitogen-activated protein kinase kinase 2 (Homo sapiens) (UniProt P36507); experiment: Selectivity interaction (Rxn Biology Kinase assay) EUB0001632a MAP2K2; conditions: at 10 µM
Dual specificity mitogen-activated protein kinase kinase 2 (Homo sapiens), sequence (P36507 whole entry): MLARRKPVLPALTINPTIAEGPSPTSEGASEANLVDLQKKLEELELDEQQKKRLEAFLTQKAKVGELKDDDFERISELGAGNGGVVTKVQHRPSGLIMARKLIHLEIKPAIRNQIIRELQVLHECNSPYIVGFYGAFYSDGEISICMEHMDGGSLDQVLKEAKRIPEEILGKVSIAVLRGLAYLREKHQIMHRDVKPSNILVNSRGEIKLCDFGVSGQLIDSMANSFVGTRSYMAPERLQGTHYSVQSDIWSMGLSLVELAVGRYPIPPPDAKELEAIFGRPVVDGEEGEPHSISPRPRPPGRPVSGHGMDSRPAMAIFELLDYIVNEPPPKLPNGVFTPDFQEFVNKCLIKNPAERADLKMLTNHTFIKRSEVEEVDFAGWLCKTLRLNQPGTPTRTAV

Vasopressin V1a receptor (Homo sapiens), sequence (P37288 whole entry, looked up): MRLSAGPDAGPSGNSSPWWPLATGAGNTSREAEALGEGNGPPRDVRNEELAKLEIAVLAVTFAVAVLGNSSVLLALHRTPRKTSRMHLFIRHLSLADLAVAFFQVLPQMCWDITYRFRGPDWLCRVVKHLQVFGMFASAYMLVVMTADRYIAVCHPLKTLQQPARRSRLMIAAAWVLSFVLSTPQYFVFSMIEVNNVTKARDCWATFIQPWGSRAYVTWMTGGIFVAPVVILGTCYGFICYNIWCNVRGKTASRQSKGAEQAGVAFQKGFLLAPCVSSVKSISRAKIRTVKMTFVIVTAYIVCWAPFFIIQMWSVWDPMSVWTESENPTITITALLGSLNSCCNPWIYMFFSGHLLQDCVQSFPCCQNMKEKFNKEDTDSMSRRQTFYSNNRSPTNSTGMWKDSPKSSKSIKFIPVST

SMILES: Cc1cc(C)cc([C@@H]2c3cc(C)ccc3NC(=O)CN2C(=O)c2ccc(Br)s2)c1
% of inhibition [1]: -5%

SMILES: CN(C)C/C=C/C(=O)Nc1ccc(C(=O)N2CCCC(Nc3ncc(Cl)c(-c4c[nH]c5ccccc45)n3)C2)cc1 (centres undefined)
% of control [2]: 100%

SMILES: Nc1cnc(N2CCc3cc(S(=O)(=O)Nc4c(F)cc(Cl)cc4F)cc(N4CCCC4=O)c32)nc1 [TP-020n]
% of control [3]: 100%

SMILES: CNC(=O)Nc1ccc(-c2nc(N3CC4CCC(C3)O4)c3cnn(C4CCC5(CC4)OCCO5)c3n2)cc1
% of control [4]: 87%

SMILES: C=CC(=O)Nc1cc(-n2c(=O)ccc3cnc4ccc(-c5ccc(NS(C)(=O)=O)cc5)cc4c32)ccc1C
% of control ([5]; at 1 µM): 100%
% of control ([5]; at 10 µM): 75%
% of control ([6]; at 1 µM): 100%
% of control ([6]; at 10 µM): 84%

% of inhibition [7]: 20%
% of inhibition [8]: -1%
% of inhibition [9]: 5.5%
SMILES: CC[C@@H]1[C@H](F)C(=O)N[C@@H]1COc1nccc2cc(C(N)=O)c(OC)cc12 [ZIMLOVISERTIB]

SMILES: COc1cc(N(C)c2ccnc3ccc(C(F)(F)F)cc23)cc(OC)c1OC
% binding [10]: 54%

SMILES: COc1cc(Nc2nc(C)cc(-c3cnn4nc(OC)ccc34)n2)cc(C(F)(F)F)c1
% of control [11]: 86%

% of inhibition [12]: 8.68%
SMILES: Cn1cc(-n2cnc3c(NCc4nc5cc(Cl)c(Cl)cc5[nH]4)nc(N4CCOCC4)nc32)cn1
